Columns and labels:
3T3-L1 [1] = experiment: Induction of 2-deoxy-D-[2,6-3H]glucose uptake in differentiated mouse 3T3L1 cells at 200 uM after 60 mins by liquid scintillation counting relative to basal uptake; type: functional
3T3-L1 [2] = experiment: Induction of 2-deoxy-D-[2,6-3H]glucose uptake in differentiated mouse 3T3L1 cells at 200 uM after 60 mins by liquid scintillation counting relative to insulin; type: functional

SMILES | fold change (FC) (3T3-L1 [1]) | Activity (3T3-L1 [2])
O[C@H]1[C@H](O)[C@H](O)[C@@H](O)[C@H](O)[C@H]1O | 1.4 - 2.8 | 64%
OC1[C@@H](O)[C@H](O)C[C@@H](O)[C@@H]1O (stereo partly specified) | 0.5 | -106%
CCCC(=O)O[C@H]1[C@H](O)[C@@H](O)[C@@H](O)[C@H](O)[C@@H]1O | 1.3 | 19%
CCCCO[C@H]1[C@@H](O)[C@H](O)[C@H](O)[C@@H](O)[C@@H]1O | 1.4 | 22%
CCCCO[C@H]1[C@H](O)[C@H](O)[C@@H](O)[C@H](O)[C@H]1O | 1.4 - 1.5 | 8%
O[C@@H]1[C@@H](O)[C@@H](O)C[C@H](O)[C@H]1O | 1.3 | 22%
O[C@H]1[C@H](O)[C@@H](O)[C@H](O)[C@H](O)[C@H]1O | 1.5 - 3 | 43%
O[C@H]1[C@H](O)[C@H](O)C[C@H](O)[C@H]1O | 1.3 | 40%

Source: ChEMBL document CHEMBL3865811, “Synthesis and biological activities of d-chiro-inositol analogues with insulin-like actions” (2016)
